According to patent US12606568B2, “SMARCA degraders and uses thereof” (Kymera Therapeutics, Inc., priority 2020, dated 2026):

What was measured:
Type in all cases: cell-based
SMARCA2 [1] = target: T1, SMARCA2 (Homo sapiens, UniProt P51531); experiment: MSD SMARCA2 degradation in A549 cell line; set-up: endogenous in cells; conditions: 24 h; for Dmax: A549, A549 cells; for DC50: A549 cells, read-out: SMARCA2 MSD A549 degradation 24 h: Average external-Abs DC50
Experimental: Example 53. MSD SMARCA2 Degradation in A549 Cell Line
Cells were seeded into 96-well plates (A549 cells: 2×10^4 cells/well/100 ul media) abd incubated overnight. The next day, 200 nl compound were added into the intermediate plate with Echo (Labcyte 550) from source plate containing a 3-fold serial dilution from top concentration of 1 mM. The culture medium was changed with 80 ul of fresh medium and 80 ul of 2× compound solution was added into the well to make a final concentration of 1000 nM, 333.3 nM, 111.1 nM, 37.04 nM, 12.35 nM, 4.115 nM, 1.372 nM, 0.457 nM, 0.152 nM and 0 nM (DMSO). The wells were mixed and then incubated for 24 hours. The media was aspirated from the cultures and 60 ul pre-chilled PIPA lysis buffer (Boston BioProducts BP-115D) with protease/phosphatase inhibitor (Roche 05892791001/Roche 04906837001) was added into the well to lyze the cells for 20 minutes at 4° C. The MSD plate (L15XA) was coated with 40 ul cell lysate and incubated at 4° C. overnight. The next day, the plate was washed three times with TBST (CST #9997S), 150 ul/well. The MSD plates was blocked with 150 ul blocking buffer per well and shaked for 1 hr at R^†, 600 rpm. The blocking buffer was 3% Blocker A (MSD, R93BA-4) in TBST. The MSD plate was washed three times with 150 ul/well of TBST and 25 ul/well of detection antibody (Rabbit anti-SMARCA2/BRM antibody, 100 μg/ml, ab223735) was added at final concentration of 1 ug/mi diluted in 1% o Blocking buffer and shaken for 1 hour at R^†, 600 rpm. The MSD plate was washed three times with 150 ul/well of TBST and 25 ul/well of SULFO-TAG anti-rabbit antibody (MSD, R32AB-1) was added at final concentration of 1 μg/ml diluted in […] Blocking buffer and shaken for 1 hour at R^†, 600 rpm. The MSD plate was washed three times with 150 ul/well of TBST and 150 ul/well of 2×MSD reading buffer diluted from 4× (MSD, R92TC-2) with water was added. Lastly, the MSD instrument was read.
(§1) The letter codes for SMARCA2 degradation potency (DC50) include: A (<100 nM), B (100-500 nM), C (501-1000 nM), and D (>1000 nM). The letter codes for the percentage of SMARCA2 degradation after 24 hours (Dmax % o) include: A (>90% o degradation), B (>70-90% o degradation), C (50-70% o degradation), and D (<50% degradation).

SMARCA2 [2] = target: T1, SMARCA2; experiment: SMARCA2 Western blot MV4-11 degradation; set-up: SMARCA2 and SMARCA4 protein degradation in MV4-11 cells; endogenous in cells; host or cells: MV4-11; conditions: 24 h; for Dmax: MV4-11, MV4-11 cells, read-out: SMARCA2 MSD MV411 degradation 24 h: average Dmax %; for DC50: MV4-11 cells, read-out: SMARCA2 MSD MV411 degradation 24 h: Mean external-Abs DC50
Experimental: (§2) Example 54. SMARCA2 and SMARCA 4 Western Blot MV4-11 Degradation
(§3) Cells were seeded into 6-well plates (MV4-11: 4×10^6 cells/well/1 ml) and 1 ml of 2× compound solution was added into the well to make the final concentration and the plates were mixed well and incubated for 24 hours (No cytotoxicity was observed). The cell were collected with media and spun at 3000 rpm for 5 minutes. The supernatant was aspirated and the well and the cells were washed with cold PBS once and combined for centrifugation again; the supernatant aspirated again. 200 ul pre-chilled RIPA lysis buffer (Boston BioProducts BP-115D) with protease/phosphatase inhibitor (Roche 05892791001/Roche 04906837001) was directly added into the tube to lyze the cells for 20 minutes on ice. The cell lysate were collected into EP tubes and spun at 13000 rpm for 20 minutes and 72 ul supernatant was transferred to a fresh EP tube containing 18 ul of 5× loading buffer (Beyotime Bio P0015) to make the loading samples. The samples were heated to 100° C. for 10 minutes and cooled to RT and microcentrifuged. 20 ul of samples were loaded onto SDS-PAGE gel (Novex, WG1402BOX) and the gel was run at 80 V for 20 minutes and 120 V for 1.5 hours. The samples were electrotransfer to a NC membrane using wet-transfer method with 250 mA for 2.5 hours. The membrane was blocked with LICOR blocking buffer (LI-COR, 927-50000) for 1 hour. The membrane was washed three times with TBST (CST #9997S), 5 minutes each. Incubation was performed with primary antibody prepared in blocking buffer with 0.1% Tween-20 (Solarbio, P8220) at 4° C. overnight (Anti-SMARCA2/BRM antibody (ab15597) 1:500; Anti-BRG1 antibody [EPR3912] (ab108318) 1:1000; Rabbit anti-Baf180 antibody [EPR15860] (Abcam, ab196022) 1:1000; mouse anti-beta-Actin (8H10D10) (CST #3700) 1:10000). The membrane was washed three times with TBST, 5 minutes each. Incubation with secondary antibody was performed for 1 hour at RT (anti-rabbit IgG (Licor, 926-32211) 1:5000; anti-mouse IgG (LI-COR, 926-68070) 1:5000). The membrane was washed three times with TBST, 5 minutes each and lastly the LiCOR was read.
as §1, with “SMARCA” for “SMARCA2”, “%)” for “% o)”, “(>90%” for “(>90% o”, “(>70-90%” for “(>70-90% o”, “(50-70%” for “(50-70% o”

SMARCA4 = target: T2, SMARCA4 (Homo sapiens, UniProt P51532); experiment: SMARCA4 Western blot MV4-11 degradation; conditions: MV4-11 cells, 24 h; read-out: SMARCA4 MSD MV411 degradation 24 h: Mean external-Abs DC50
T2 construct: SMARCA2 and SMARCA4 protein degradation in MV4-11 cells; endogenous in cells; host or cells: MV4-11
Experimental: as §2, §3
as §1, with “SMARCA” for “SMARCA2”, “%)” for “% o)”, “(>90%” for “(>90% o”, “(>70-90%” for “(>70-90% o”, “(50-70%” for “(50-70% o”

T1 sequence (P51531 whole entry): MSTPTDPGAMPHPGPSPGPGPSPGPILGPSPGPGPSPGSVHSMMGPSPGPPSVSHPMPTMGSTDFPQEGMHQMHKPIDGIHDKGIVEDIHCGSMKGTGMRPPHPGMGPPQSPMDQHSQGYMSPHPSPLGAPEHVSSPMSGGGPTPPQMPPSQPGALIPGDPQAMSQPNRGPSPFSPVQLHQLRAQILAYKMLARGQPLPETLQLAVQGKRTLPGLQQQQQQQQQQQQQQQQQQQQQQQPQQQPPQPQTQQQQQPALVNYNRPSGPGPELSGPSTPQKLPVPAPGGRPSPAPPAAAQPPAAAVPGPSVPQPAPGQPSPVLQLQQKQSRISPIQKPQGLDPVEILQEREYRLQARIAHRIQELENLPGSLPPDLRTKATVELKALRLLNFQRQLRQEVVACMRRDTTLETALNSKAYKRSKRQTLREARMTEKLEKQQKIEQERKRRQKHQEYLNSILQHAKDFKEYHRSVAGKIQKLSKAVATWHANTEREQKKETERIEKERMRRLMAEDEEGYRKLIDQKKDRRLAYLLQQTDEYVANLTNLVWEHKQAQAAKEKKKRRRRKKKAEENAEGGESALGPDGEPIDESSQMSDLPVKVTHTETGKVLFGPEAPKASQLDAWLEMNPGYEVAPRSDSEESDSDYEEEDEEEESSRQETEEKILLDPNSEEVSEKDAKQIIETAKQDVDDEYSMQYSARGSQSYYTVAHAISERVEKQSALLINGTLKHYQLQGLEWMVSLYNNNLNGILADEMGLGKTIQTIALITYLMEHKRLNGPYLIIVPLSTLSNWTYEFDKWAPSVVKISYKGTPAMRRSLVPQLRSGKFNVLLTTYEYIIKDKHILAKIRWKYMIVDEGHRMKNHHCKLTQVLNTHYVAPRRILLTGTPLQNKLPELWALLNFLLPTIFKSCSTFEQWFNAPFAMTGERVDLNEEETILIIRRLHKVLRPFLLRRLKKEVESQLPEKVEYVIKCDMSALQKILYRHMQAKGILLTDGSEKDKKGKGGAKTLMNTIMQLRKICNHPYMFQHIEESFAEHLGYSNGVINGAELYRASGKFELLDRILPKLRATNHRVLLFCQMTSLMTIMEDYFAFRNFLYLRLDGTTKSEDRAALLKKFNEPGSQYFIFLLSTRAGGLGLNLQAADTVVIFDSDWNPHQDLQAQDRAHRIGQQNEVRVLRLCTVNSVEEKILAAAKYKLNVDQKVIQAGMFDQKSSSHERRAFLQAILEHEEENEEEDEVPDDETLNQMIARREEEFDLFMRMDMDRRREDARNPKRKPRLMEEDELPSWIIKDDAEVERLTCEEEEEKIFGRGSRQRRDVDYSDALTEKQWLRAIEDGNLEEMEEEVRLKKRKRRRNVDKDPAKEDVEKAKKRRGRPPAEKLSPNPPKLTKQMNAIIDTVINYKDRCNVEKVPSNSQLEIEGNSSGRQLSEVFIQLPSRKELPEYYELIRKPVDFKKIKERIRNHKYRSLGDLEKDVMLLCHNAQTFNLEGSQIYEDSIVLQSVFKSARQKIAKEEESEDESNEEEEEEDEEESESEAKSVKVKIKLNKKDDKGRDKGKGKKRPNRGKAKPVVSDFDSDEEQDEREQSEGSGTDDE
T2 sequence (P51532 whole entry): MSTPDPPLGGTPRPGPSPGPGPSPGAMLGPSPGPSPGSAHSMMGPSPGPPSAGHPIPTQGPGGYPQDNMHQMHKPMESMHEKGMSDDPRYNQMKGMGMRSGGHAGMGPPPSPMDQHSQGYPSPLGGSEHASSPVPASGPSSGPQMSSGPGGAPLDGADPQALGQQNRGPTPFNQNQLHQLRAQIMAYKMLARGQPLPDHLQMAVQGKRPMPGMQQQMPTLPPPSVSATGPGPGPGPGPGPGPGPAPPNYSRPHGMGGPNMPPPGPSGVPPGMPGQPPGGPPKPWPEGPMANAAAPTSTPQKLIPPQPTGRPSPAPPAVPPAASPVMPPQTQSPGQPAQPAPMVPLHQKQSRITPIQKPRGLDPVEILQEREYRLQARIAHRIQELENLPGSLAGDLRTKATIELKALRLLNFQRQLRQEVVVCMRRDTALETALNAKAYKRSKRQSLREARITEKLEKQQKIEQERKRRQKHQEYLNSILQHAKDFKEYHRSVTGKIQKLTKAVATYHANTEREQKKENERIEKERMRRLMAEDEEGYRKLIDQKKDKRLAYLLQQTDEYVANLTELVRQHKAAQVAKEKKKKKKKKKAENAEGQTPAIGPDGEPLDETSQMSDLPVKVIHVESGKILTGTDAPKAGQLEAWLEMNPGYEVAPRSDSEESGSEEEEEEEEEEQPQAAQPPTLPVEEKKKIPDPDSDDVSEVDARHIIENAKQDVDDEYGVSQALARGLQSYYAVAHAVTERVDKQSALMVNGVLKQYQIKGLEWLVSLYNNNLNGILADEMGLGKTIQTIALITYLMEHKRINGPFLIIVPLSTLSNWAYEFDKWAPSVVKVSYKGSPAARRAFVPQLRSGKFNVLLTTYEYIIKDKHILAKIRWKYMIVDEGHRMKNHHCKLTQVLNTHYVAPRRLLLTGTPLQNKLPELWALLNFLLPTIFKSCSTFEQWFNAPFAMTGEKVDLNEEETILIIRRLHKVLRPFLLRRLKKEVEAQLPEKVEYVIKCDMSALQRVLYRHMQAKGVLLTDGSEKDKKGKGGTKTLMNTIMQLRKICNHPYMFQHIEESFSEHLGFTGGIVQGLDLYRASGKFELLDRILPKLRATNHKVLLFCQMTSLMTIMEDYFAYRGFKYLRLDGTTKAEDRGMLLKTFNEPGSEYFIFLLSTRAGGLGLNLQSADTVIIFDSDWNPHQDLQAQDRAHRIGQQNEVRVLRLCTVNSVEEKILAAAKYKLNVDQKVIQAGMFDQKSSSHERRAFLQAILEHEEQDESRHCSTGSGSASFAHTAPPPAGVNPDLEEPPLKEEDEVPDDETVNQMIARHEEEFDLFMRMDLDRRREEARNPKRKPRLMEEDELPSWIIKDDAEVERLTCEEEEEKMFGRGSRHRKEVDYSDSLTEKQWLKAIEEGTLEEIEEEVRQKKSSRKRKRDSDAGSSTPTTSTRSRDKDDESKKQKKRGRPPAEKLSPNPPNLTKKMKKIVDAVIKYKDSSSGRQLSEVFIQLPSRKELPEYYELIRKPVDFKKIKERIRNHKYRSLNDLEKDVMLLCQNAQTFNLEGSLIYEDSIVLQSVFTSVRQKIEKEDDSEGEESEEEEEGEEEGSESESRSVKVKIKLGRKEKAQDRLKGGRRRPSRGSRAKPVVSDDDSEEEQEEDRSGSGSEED

Structure (SMILES): Cc1ncsc1-c1ccc(CNC(=O)[C@@H]2C[C@@H](O)CN2C(=O)C(c2cc(O[C@H]3CC[C@H](N4CCC(c5cnc(N6C7CCC6CN(c6cc(-c8ccccc8O)nnc6N)C7)nc5)CC4)CC3)no2)C(C)C)cc1 (stereo partly drawn) [I-17, (2S,4R)-1-(2-(3-(((1r,4S)-4-(4-(2-(3-(3-amino-6-(2-hydroxyphenyl)pyridazin-4-yl)-3,8-diazabicyclo[3.2.1]octan-8-yl)pyrimidin-5-yl)piperidin-1-yl)cyclohexyl)oxy)isoxazol-5-yl)-3-methylbutanoyl)-4-hydroxy-N-(4-(4-methylthiazol-5-yl)benzyl)pyrrolidine-2-carboxamide]
- Dmax (SMARCA2 [1]): > 90%
- DC50 (SMARCA2 [1]): < 100 nM
- Dmax (SMARCA2 [2]): > 90%
- DC50 (SMARCA2 [2]): < 100 nM

Structure (SMILES): Cc1ncsc1-c1ccc(CNC(=O)[C@@H]2C[C@@H](O)CN2C(=O)C(c2cc(O[C@H]3CC[C@@H](N4CCC(c5cnc(N6C7CCC6CN(c6cc(-c8ccccc8O)nnc6N)C7)nc5)CC4)CC3)no2)C(C)C)cc1 (stereo partly drawn) [I-18, (2S,4R)-1-(2-(3-(((1s,4R)-4-(4-(2-(3-(3-amino-6-(2-hydroxyphenyl)pyridazin-4-yl)-3,8-diazabicyclo[3.2.1]octan-8-yl)pyrimidin-5-yl)piperidin-1-yl)cyclohexyl)oxy)isoxazol-5-yl)-3-methylbutanoyl)-4-hydroxy-N-(4-(4-methylthiazol-5-yl)benzyl)pyrrolidine-2-carboxamide]
- Dmax (SMARCA2 [1]): > 90%
- DC50 (SMARCA2 [1]): < 100 nM
- Dmax (SMARCA2 [2]): > 90%
- DC50 (SMARCA2 [2]): < 100 nM

Structure (SMILES): Cc1ncsc1-c1ccc(CNC(=O)[C@@H]2C[C@@H](O)CN2C(=O)C(c2cc([C@H]3CC[C@@H](N4CCC(c5cnc(N6C7CCC6CN(c6cc(-c8ccccc8O)nnc6N)C7)nc5)CC4)CC3)no2)C(C)C)cc1 (stereo partly drawn) [I-19, (2S,4R)-1-(2-(3-(4-(4-(2-(3-(3-amino-6-(2-hydroxyphenyl)pyridazin-4-yl)-3,8-diazabicyclo[3.2.1]octan-8-yl)pyrimidin-5-yl)piperidin-1-yl)cyclohexyl)isoxazol-5-yl)-3-methylbutanoyl)-4-hydroxy-N-(4-(4-methylthiazol-5-yl)benzyl)pyrrolidine-2-carboxamide]
- Dmax (SMARCA2 [1]): > 90%
- DC50 (SMARCA2 [1]): < 100 nM
- Dmax (SMARCA2 [2]): > 90%
- DC50 (SMARCA2 [2]): < 100 nM

Structure (SMILES): Cc1ncsc1-c1ccc(CNC(=O)[C@@H]2C[C@@H](O)CN2C(=O)C(c2cc([C@H]3CC[C@H](N4CCC(c5cnc(N6C7CCC6CN(c6cc(-c8ccccc8O)nnc6N)C7)nc5)CC4)CC3)no2)C(C)C)cc1 (stereo partly drawn) [I-20, (2S,4R)-1-(2-(3-(4-(4-(2-(3-(3-amino-6-(2-hydroxyphenyl)pyridazin-4-yl)-3,8-diazabicyclo[3.2.1]octan-8-yl)pyrimidin-5-yl)piperidin-1-yl)cyclohexyl)isoxazol-5-yl)-3-methylbutanoyl)-4-hydroxy-N-(4-(4-methylthiazol-5-yl)benzyl)pyrrolidine-2-carboxamide]
- Dmax (SMARCA2 [1]): > 90%
- DC50 (SMARCA2 [1]): < 100 nM

Structure (SMILES): Cc1ncsc1-c1cnc(CNC(=O)[C@@H]2C[C@@H](O)CN2C(=O)[C@@H](NC(=O)[C@H]2CC3(C2)C[C@H](N2CCC(c4ccc(N5C6CCC5CN(c5cc(-c7ccccc7O)nnc5N)C6)cc4)CC2)C3)C(C)(C)C)nc1 (stereo partly drawn) [I-26, (2S,4R)-1-((2S)-2-(6-(4-(4-(3-(3-amino-6-(2-hydroxyphenyl)pyridazin-4-yl)-3,8-diazabicyclo [3.2.1]octan-8-yl)phenyl)piperidin-1-yl)spiro[3.3]heptane-2-carboxamido)-3,3-dimethylbutanoyl)-4-hydroxy-N-((5-(4-methylthiazol-5-yl)pyrimidin-2-yl)methyl)pyrrolidine-2-carboxamide]
- DC50 (SMARCA4): > 1000 nM
- DC50 (SMARCA2 [1]): > 1000 nM

Structure (SMILES): Cc1ncsc1-c1cnc(CNC(=O)[C@@H]2C[C@@H](O)CN2C(=O)[C@@H](NC(=O)[C@H]2CC3(C2)C[C@H](N2CCC(c4ccc(N5C6CCC5CN(c5cc(-c7ccccc7O)nnc5N)C6)cc4)CC2)C3)C(C)(C)C)cn1 (stereo partly drawn) [I-30, (2S,4R)-1-((2S)-2-(6-(4-(4-(3-(3-amino-6-(2-hydroxyphenyl)pyridazin-4-yl)-3,8-diazabicyclo[3.2.1]octan-8-yl)phenyl)piperidin-1-yl)spiro[3.3]heptane-2-carboxamido)-3,3-dimethylbutanoyl)-4-hydroxy-N-((5-(4-methylthiazol-5-yl)pyrazin-2-yl)methyl)pyrrolidine-2-carboxamide]
- DC50 (SMARCA4): > 1000 nM
- DC50 (SMARCA2 [1]): > 1000 nM

Structure (SMILES): Cc1nccn1-c1ccc(CNC(=O)[C@@H]2C[C@@H](O)CN2C(=O)[C@@H](NC(=O)[C@H]2CC3(C2)C[C@H](N2CCC(c4cnc(N5C6CCC5CN(c5cc(-c7ccccc7O)nnc5N)C6)nc4)CC2)C3)C(C)(C)C)cc1 (stereo partly drawn) [I-34, (2S,4R)-1-((2S)-2-(6-(4-(2-(3-(3-amino-6-(2-hydroxyphenyl)pyridazin-4-yl)-3,8-diazabicyclo[3.2.1]octan-8-yl)pyrimidin-5-yl)piperidin-1-yl)spiro[3.3]heptane-2-carboxamido)-3,3-dimethylbutanoyl)-4-hydroxy-N-(4-(2-methyl-1H-imidazol-1-yl)benzyl-)pyrrolidine-2-carboxamide]
- DC50 (SMARCA4): > 1000 nM
- DC50 (SMARCA2 [2]): 100 to 500 nM

Structure (SMILES): Cc1ncsc1-c1ccc(CNC(=O)[C@@H]2C[C@@H](O)CN2C(=O)C(c2cc(N3CCC(CCCN4CCC(c5cnc(N6C7CCC6CN(c6cc(-c8ccccc8O)nnc6N)C7)nc5)CC4)CC3)no2)C(C)C)cc1 (stereo partly drawn) [I-64]
- Dmax (SMARCA2 [1]): > 90%
- DC50 (SMARCA2 [1]): < 100 nM
- Dmax (SMARCA2 [2]): > 90%
- DC50 (SMARCA2 [2]): < 100 nM
